Results from patent publication US10947254B2, “Methods for treating ulcerative colitis using 3-((1R,3s,5S)-3-((7-((5-methyl-1H-pyrazol-3-yl)amino)-1,6-naphthyridin-5-yl)amino)-8-azabicyclo[3.2.1]octan-8-yl)propanenitrile” (priority 2015, dated 2021).

What was measured:
[1] = system: IL-4 induced STAT6 phosphorylation in THP-1 human monocytic cells; conditions: THP-1 cells
[2] = system: IL-13 induced STAT6 phosphorylation in BEAS-2B human lung epithelial cells; conditions: BEAS-2B cells
TYK2 = TYK2 (Homo sapiens (Human), UniProt P29597); type: biochemical
Sequence of TYK2 (P29597 whole entry): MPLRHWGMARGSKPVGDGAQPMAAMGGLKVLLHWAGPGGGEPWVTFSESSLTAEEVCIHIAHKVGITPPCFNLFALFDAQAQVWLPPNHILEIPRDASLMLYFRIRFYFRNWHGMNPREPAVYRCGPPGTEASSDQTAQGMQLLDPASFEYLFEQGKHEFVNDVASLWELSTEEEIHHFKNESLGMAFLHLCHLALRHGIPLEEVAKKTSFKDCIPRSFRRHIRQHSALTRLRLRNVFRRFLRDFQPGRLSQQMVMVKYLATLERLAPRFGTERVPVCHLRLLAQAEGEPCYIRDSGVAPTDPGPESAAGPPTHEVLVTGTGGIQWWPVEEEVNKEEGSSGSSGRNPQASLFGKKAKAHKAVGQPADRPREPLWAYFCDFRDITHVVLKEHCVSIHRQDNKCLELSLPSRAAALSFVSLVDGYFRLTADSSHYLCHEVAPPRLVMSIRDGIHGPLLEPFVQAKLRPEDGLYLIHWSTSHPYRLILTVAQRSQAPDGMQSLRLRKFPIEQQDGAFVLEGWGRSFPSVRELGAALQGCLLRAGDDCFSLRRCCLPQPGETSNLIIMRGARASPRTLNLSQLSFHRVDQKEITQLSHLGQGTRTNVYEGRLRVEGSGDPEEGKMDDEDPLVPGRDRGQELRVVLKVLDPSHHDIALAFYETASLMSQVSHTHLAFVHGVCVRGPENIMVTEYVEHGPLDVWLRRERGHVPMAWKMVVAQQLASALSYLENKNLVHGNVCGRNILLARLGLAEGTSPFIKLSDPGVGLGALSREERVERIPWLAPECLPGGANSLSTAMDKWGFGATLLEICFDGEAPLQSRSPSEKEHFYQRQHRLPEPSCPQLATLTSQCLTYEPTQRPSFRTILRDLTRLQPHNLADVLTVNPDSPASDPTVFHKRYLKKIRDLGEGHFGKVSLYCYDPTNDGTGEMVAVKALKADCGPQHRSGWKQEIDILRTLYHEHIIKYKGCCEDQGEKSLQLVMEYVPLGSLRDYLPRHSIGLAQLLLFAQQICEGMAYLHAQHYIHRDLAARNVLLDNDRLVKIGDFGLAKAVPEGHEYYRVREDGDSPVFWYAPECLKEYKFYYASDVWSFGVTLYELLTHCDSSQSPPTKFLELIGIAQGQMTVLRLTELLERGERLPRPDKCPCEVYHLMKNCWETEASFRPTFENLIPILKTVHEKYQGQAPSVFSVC
Method: (§1) Assay 1: Biochemical JAK and Off-Target Kinase Assays
(§2) A panel of four LanthaScreen JAK biochemical assays (JAK1, 2, 3 and Tyk2) were carried in a common kinase reaction buffer (50 mM HEPES, pH 7.5, 0.01% Brij-35, 10 mM MgCl2, and 1 mM EGTA). Recombinant GST-tagged JAK enzymes and a GFP-tagged STAT1 peptide substrate were obtained from Life Technologies.
(§3) Serially diluted compounds were pre-incubated with each of the four JAK enzymes and the substrate in white 384-well microplates (Corning) at ambient temperature for 1 h. ATP was subsequently added to initiate the kinase reactions in 10 μL total volume, with 1% DMSO. […] Kinase reactions were allowed to proceed for 1 hour at ambient temperature before a 10 μL preparation of EDTA (10 mM final concentration) and Tb-anti-pSTAT1 (pTyr701) antibody (Life Technologies, 2 nM final concentration) in TR-FRET dilution buffer (Life Technologies) was added. The plates were allowed to incubate at ambient temperature for 1 h before being read on the EnVision reader (Perkin Elmer).
(§4) Results were expressed as pIC50 (negative logarithm of IC50) and subsequently converted to pKi (negative logarithm of dissociation constant, Ki) using the Cheng-Prusoff equation.

JAK1 = JAK1 (Homo sapiens (Human), UniProt P23458); type: biochemical
Sequence of JAK1 (P23458 whole entry): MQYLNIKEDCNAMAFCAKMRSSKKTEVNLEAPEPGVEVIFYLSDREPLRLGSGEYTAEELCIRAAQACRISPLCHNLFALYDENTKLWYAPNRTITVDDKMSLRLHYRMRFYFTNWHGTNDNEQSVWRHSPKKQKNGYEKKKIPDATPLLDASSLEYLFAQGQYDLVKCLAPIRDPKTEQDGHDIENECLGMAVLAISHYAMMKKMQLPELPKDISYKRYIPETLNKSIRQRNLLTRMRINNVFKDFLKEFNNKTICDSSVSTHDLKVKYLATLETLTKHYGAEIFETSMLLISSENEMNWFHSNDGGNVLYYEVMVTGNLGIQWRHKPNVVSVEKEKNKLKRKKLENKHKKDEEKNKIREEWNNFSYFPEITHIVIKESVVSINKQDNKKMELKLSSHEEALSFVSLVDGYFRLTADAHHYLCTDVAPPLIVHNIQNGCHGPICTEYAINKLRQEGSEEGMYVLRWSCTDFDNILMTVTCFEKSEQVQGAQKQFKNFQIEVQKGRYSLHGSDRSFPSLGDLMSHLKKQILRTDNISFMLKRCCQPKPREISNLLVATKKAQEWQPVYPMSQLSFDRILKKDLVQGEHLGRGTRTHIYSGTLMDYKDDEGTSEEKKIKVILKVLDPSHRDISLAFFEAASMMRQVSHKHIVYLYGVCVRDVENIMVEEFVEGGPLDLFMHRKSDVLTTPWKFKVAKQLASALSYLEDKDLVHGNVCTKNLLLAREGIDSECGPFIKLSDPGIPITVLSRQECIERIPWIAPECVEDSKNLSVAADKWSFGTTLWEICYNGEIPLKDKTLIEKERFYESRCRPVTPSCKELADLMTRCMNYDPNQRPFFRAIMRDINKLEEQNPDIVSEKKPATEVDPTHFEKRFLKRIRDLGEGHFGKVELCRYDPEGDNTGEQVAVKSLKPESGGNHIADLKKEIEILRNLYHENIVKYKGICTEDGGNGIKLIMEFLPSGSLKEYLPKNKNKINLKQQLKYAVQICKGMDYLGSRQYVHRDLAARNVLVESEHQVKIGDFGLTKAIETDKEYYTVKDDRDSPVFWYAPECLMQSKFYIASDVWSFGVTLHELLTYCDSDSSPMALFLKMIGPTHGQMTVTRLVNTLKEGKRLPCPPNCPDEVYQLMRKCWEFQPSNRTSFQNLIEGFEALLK
Method: as §1, §2, §3, §4

JAK3 = JAK3 (Homo sapiens (Human), UniProt P52333); assay: Biochemical JAK assay (LanthaScreen), JAK3
Sequence of JAK3 (P52333 whole entry): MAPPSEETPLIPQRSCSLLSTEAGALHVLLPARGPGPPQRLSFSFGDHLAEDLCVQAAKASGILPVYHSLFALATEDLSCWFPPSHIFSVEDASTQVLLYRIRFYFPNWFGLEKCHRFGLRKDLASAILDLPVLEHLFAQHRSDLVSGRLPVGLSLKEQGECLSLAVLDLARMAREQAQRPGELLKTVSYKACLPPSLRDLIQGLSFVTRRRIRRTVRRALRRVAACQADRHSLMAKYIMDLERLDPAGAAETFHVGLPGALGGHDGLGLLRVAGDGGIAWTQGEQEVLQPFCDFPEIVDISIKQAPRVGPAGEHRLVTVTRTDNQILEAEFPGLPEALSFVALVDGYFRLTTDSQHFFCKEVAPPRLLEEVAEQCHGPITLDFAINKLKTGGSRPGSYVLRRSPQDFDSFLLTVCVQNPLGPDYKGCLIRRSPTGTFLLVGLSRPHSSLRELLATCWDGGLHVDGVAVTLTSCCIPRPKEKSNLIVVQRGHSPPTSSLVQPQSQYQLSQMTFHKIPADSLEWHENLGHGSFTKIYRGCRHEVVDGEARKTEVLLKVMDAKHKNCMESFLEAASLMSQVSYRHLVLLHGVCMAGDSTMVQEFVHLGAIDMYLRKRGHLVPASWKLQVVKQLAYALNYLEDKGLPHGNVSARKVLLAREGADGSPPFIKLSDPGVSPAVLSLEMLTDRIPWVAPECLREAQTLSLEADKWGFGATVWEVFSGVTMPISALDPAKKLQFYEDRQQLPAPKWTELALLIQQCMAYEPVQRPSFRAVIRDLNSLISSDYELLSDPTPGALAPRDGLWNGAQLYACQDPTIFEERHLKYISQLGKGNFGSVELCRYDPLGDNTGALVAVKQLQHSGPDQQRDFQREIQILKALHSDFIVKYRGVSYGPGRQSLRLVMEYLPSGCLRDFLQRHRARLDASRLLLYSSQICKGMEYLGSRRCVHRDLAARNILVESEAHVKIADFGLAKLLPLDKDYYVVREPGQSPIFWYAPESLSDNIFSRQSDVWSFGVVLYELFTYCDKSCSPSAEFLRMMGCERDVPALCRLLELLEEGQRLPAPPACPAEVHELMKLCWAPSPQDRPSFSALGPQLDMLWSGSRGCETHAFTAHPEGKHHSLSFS
Method: as §1, §2
Serially diluted compounds were pre-incubated with each of the four JAK enzymes and the substrate in white 384-well microplates (Corning) at ambient temperature for 1 h. ATP was subsequently added to initiate the kinase reactions in 10 μL total volume, with 1% DMSO. […] The plates were allowed to incubate at ambient temperature for 1 h before being read on the EnVision reader (Perkin Elmer).
as §4

JAK2 = JAK2 (Homo sapiens (Human), UniProt O60674); type: biochemical
Sequence of JAK2 (O60674 whole entry): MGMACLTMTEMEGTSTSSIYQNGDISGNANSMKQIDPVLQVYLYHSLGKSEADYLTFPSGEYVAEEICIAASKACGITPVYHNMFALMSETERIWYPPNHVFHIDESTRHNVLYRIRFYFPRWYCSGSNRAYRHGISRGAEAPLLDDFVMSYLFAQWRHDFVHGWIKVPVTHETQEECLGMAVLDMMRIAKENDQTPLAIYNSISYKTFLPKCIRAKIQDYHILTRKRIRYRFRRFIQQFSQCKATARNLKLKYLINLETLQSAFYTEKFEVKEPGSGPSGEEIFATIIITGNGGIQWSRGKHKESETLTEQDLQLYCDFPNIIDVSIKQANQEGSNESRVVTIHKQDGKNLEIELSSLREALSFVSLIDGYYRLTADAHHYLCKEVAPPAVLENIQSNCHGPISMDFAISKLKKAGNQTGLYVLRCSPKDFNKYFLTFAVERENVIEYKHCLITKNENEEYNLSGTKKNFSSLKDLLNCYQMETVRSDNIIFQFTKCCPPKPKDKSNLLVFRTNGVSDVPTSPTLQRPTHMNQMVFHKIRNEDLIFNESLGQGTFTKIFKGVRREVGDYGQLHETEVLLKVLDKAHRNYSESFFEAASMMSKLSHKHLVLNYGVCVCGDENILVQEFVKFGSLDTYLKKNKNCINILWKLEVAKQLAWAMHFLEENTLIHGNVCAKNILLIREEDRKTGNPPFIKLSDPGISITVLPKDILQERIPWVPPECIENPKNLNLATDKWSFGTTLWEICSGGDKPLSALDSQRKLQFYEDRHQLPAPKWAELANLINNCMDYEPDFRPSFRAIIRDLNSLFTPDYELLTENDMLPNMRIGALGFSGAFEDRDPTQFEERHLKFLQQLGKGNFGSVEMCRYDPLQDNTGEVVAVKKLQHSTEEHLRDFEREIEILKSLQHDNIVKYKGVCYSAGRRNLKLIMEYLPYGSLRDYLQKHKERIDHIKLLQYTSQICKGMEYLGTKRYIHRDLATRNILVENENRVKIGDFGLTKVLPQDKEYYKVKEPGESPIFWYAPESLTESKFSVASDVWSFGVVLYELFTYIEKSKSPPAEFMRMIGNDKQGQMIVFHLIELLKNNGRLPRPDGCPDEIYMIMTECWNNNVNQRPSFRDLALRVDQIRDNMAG
Method: as §1, §2, §3, §4

[3] = system: oxazolone-induced colitis; assay: Mouse model of oxazolone-induced colitis; type: in vivo, BALB/C mice; conditions: mice, PO, 1, 3, and/or 10 mg/kg BID (doses up to 10 mg/kg BID)
Method: Assay 7: Mouse Model of Oxazalone-Induced Colitis
Oxazolone-induced colitis is an experimental model that has a histological resemblance to human ulcerative colitis (Heller et al. Immunology, 2002, 17, 629-638). Adult BALB/C mice from Harlan were used in the assay. On day 1, animals were lightly anesthetized with isoflurane and the hairs between the shoulder were carefully removed before oxazolone (4%, 150 μL, 4:1 acetone:olive oil formulation) or vehicle solution was slowly applied for skin sensitization. Seven days after skin sensitization, the mice were fasted overnight, anesthetized with isoflurane inhalation, and a 1 mL syringe equipped with a 3.5-F catheter, filled with oxazolone solution, was inserted carefully about 4 cm into the colon of the mouse. Following insertion, 50 μL of the oxazolone solution (1%, 1:1 ethanol:water formulation) was injected very slowly (over 30 sec using an injection pump) into the colon. The catheter was removed and the mice were held vertically (head down) for 2 min to ensure that the entire oxazolone solution remained inside the colon. Drug treatment (PO, BID or TID) or vehicle was initiated a day prior to the oxazolone intrarectal (IR) challenge. Two-day post oxazolone intrarectal challenge, the Disease Activity Index (DAI) was assessed by treatment-blinded experimenters for each mouse according to the criteria score: stool consistency score (0, normal; 2, loose; 4, diarrhea), gross bleeding score (0, absence; 2, blood tinged; 4, presence), and weight loss score (0, none; 1, 1%-5%; 2, 5%-10%; 3, 10%-20%; 4, more than 20%); DAI=average of (stool consistency score+gross bleeding score+weight loss score).
Selected compounds of the invention were tested in the assay. Efficacy in the model is evidenced by a decrease in DAI score as compared with the score from vehicle treated animals.

[4] = system: splenic NK, B and T cells; assay: Immunosuppression effects in mouse splenic natural killer (NK) cells; type: in vivo, Balb/C mice; conditions: mice, three days
Method: Adult male Balb/C mice (12-14 weeks of age) from Harlan were used for the study. […] Spleens were harvested 1 or 2 h post last dose and crushed immediately for cell subtype staining. Prior to fixation, fluorophore-labelled antibodies for CD19 (FITC; B cells), CD3e (PE; pan T cells) and DX5 (APC; NK cells) were incubated with splenocyte samples from each animal to allow for simultaneous, multiple subtype % analysis on the flow cytometer. The number of total spleen cells for each animal was measured by Scepter™ 2.0 Handheld Automated Cell Counter. The absolute number of lymphocyte subtype population (e.g., splenic B, T and NK cells) was calculated from the percentage of each subtype times total spleen cells for each animal. A one way ANOVA, with Dunnett's post hoc test, was used to compare the splenic lymphocytes number of the vehicle and test compound groups. The a level was set at p<0.05. Data were presented as the mean±SEM for each group.

[5] = 5% to 90% relative humidity, room temperature; listed as Crystalline 3-(1R,3s,5S)-3-((7-((5-methyl-1H-pyrazol-3-yl)amino)-1,6-naphthyrid))
Method: A weighed sample was used and the humidity was lowest possible value (close to 0% RH) at the start of the analysis. The DMS analysis consisted of an initial drying step (0% RH) for 120 minutes, followed by two cycles of sorption and desorption with a scan rate of 5% RH/step over the humidity range of 5% RH to 90% RH. The DMS run was performed isothermally at 25° C.

Row | Structure (SMILES) | THP-1 IL4 pIC50 [1] | BEAS2B pIC50 [2] | Tyk 2 (pKi) (TYK2) | JAK 1 (pKi) (JAK1) | JAK 3 (pKi) (JAK3) | other results
1 | Cc1cnc2cc(Nc3cc(C)[nH]n3)nc(N[C@@H]3C[C@H]4CC[C@@H](C3)N4S(C)(=O)=O)c2c1 [Example 6-5] | A (A represents a pEC50 value ≥7.5 (EC50≤32 nM)) | A (A represents a pEC50 value ≥7.5 (EC50≤32 nM)) | B (B represents a pKi value between 9 and 10 (Ki between 1 nM and 0.1 nM)) | B (B represents a pKi value between 9 and 10 (Ki between 1 nM and 0.1 nM)) | C (C represents a pKi value between 7 and 9 (Ki between 100 nM and 1 nM)) | –
2 | Cc1cc(Nc2cc3ncccc3c(N[C@@H]3C[C@H]4CCC[C@@H](C3)N4C(=O)C3(C#N)CC3)n2)n[nH]1 [Example 2-20] | A (A represents a pEC50 value ≥7.5 (EC50≤32 nM)) | A (A represents a pEC50 value ≥7.5 (EC50≤32 nM)) | C (C represents a pKi value between 7 and 9 (Ki between 100 nM and 1 nM)) | B (B represents a pKi value between 9 and 10 (Ki between 1 nM and 0.1 nM)) | – | JAK 2 (pKi) (JAK2): B (B represents a pKi value between 9 and 10 (Ki between 1 nM and 0.1 nM))
3 | Cc1cc(Nc2cc3ncccc3c(N[C@@H]3C[C@H]4CCC[C@@H](C3)N4C(=O)Cc3ccccc3)n2)n[nH]1 [Example 2-24] | A (A represents a pEC50 value ≥7.5 (EC50≤32 nM)) | A (A represents a pEC50 value ≥7.5 (EC50≤32 nM)) | – | – | – | decrease in DAI score as compared with vehicle treated animals [3]: did not exhibit a statistically significant decrease
4 | Cc1cc(Nc2cc3ncccc3c(N[C@@H]3C[C@H]4CC[C@@H](C3)N4C(=O)C3(C#N)CC3)n2)n[nH]1 [Example 2-8] | B (B represents a pEC50 value between 6.7 and 7.5 (EC50 between 200 nM and 32 nM)) | – | C (C represents a pKi value between 7 and 9 (Ki between 100 nM and 1 nM)) | B (B represents a pKi value between 9 and 10 (Ki between 1 nM and 0.1 nM)) | – | JAK 2 (pKi) (JAK2): B (B represents a pKi value between 9 and 10 (Ki between 1 nM and 0.1 nM))
5 | COC(=O)c1cnc2cc(Nc3cc(C)[nH]n3)nc(N[C@@H]3C[C@H]4CCC[C@@H](C3)N4C3CCOC(=O)C3)c2c1 (stereo partly drawn) [Example 6-48] | B (B represents a pEC50 value between 6.7 and 7.5 (EC50 between 200 nM and 32 nM)) | – | C (C represents a pKi value between 7 and 9 (Ki between 100 nM and 1 nM)) | B (B represents a pKi value between 9 and 10 (Ki between 1 nM and 0.1 nM)) | C (C represents a pKi value between 7 and 9 (Ki between 100 nM and 1 nM)) | –
6 | Cc1cc(Nc2cc3ncccc3c(N[C@@H]3C[C@H]4CCC[C@@H](C3)N4C(=O)C3(C(F)(F)F)CC3)n2)n[nH]1 [Example 2-19] | A (A represents a pEC50 value ≥7.5 (EC50≤32 nM)) | – | B (B represents a pKi value between 9 and 10 (Ki between 1 nM and 0.1 nM)) | B (B represents a pKi value between 9 and 10 (Ki between 1 nM and 0.1 nM)) | C (C represents a pKi value between 7 and 9 (Ki between 100 nM and 1 nM)) | –
7 | Cc1cc(Nc2cc3ncccc3c(N[C@@H]3C[C@H]4CC[C@@H](C3)N4C(=O)C3(C(F)(F)F)CC3)n2)n[nH]1 [Example 2-7] | B (B represents a pEC50 value between 6.7 and 7.5 (EC50 between 200 nM and 32 nM)) | – | C (C represents a pKi value between 7 and 9 (Ki between 100 nM and 1 nM)) | B (B represents a pKi value between 9 and 10 (Ki between 1 nM and 0.1 nM)) | C (C represents a pKi value between 7 and 9 (Ki between 100 nM and 1 nM)) | –
8 | Cc1cc(Nc2cc3ncccc3c(N[C@@H]3C[C@H]4CC[C@@H](C3)N4S(=O)(=O)CC(C)C)n2)n[nH]1 [Example 4-3] | A (A represents a pEC50 value ≥7.5 (EC50≤32 nM)) | A (A represents a pEC50 value ≥7.5 (EC50≤32 nM)) | – | – | – | decrease in DAI score as compared with vehicle treated animals [3]: did not exhibit a statistically significant decrease
9 | COC(=O)c1cnc2cc(Nc3cc(C)[nH]n3)nc(N[C@@H]3C[C@H]4CC[C@@H](C3)N4CCCF)c2c1 [Example 6-44] | – | – | – | B (B represents a pKi value between 9 and 10 (Ki between 1 nM and 0.1 nM)) | – | –
10 | COCC1CCCN1S(=O)(=O)N1[C@@H]2CCC[C@H]1C[C@H](Nc1nc(Nc3cc(C)[nH]n3)cc3ncccc13)C2 (stereo partly drawn) [Example 4-28] | A (A represents a pEC50 value ≥7.5 (EC50≤32 nM)) | – | B (B represents a pKi value between 9 and 10 (Ki between 1 nM and 0.1 nM)) | – | C (C represents a pKi value between 7 and 9 (Ki between 100 nM and 1 nM)) | JAK 2 (pKi) (JAK2): B (B represents a pKi value between 9 and 10 (Ki between 1 nM and 0.1 nM))
11 | C[C@@H]1CCN(C(=O)CC#N)C[C@@H]1N(C)c1ncnc2[nH]ccc12 [tofacitinib, reference compound] | – | – | – | – | – | splenic NK cell counts ([4]; 30 mg/kg PO BID): significantly decreased; treatment effect on B and T cell populations ([4]; PO BID): No treatment effect
12 | Cc1cc(Nc2cc3ncccc3c(N[C@@H]3C[C@H]4CC[C@@H](C3)N4CCC#N)n2)n[nH]1 [Form I, 3-((1R,3s,5S)-3-((7-((5-methyl-1H-pyrazol-3-yl)amino)-1,6-naphthyridin-5-yl)amino)-8-azabicyclo[3.2.1]octan-8-yl)propanenitrile] | – | – | – | – | – | weight gain / weight change on exposure to humidity [5]: less than 0.15%
13 | Cc1cc(Nc2cc3ncccc3c(N[C@@H]3C[C@H]4CCC[C@@H](C3)N4S(=O)(=O)CC3CC3)n2)n[nH]1 [Example 4-23] | A (A represents a pEC50 value ≥7.5 (EC50≤32 nM)) | A (A represents a pEC50 value ≥7.5 (EC50≤32 nM)) | – | – | – | decrease in DAI score as compared with vehicle treated animals [3]: did not exhibit a statistically significant decrease
14 | COCCS(=O)(=O)N1[C@@H]2CCC[C@H]1C[C@H](Nc1nc(Nc3cc(C)[nH]n3)cc3ncccc13)C2 [Example 4-19] | A (A represents a pEC50 value ≥7.5 (EC50≤32 nM)) | A (A represents a pEC50 value ≥7.5 (EC50≤32 nM)) | – | – | – | decrease in DAI score as compared with vehicle treated animals [3]: did not exhibit a statistically significant decrease
15 | Cc1cnc2cc(Nc3cc(C)[nH]n3)nc(N[C@@H]3C[C@H]4CCC[C@@H](C3)N4S(C)(=O)=O)c2c1 [Example 6-8] | A (A represents a pEC50 value ≥7.5 (EC50≤32 nM)) | A (A represents a pEC50 value ≥7.5 (EC50≤32 nM)) | B (B represents a pKi value between 9 and 10 (Ki between 1 nM and 0.1 nM)) | B (B represents a pKi value between 9 and 10 (Ki between 1 nM and 0.1 nM)) | B (B represents a pKi value between 9 and 10 (Ki between 1 nM and 0.1 nM)) | –
